Source: patent US20230092890A1, “1, 3, 4-Oxadiazole derivative compounds as histone deacetylase 6 inhibitor, and the pharmaceutical composition comprising the same” (Chong Kun Dang Pharmaceutical Corp., priority 2019, published 2023)

Key:
HDAC6 human recombinant = molecular target: T1, HDAC6 human recombinant (Homo sapiens, UniProt Q9UBN7); assay: HDAC enzyme activity inhibition (in vitro), HDAC6 assay; format: biochemical; conditions: samples at 0.1, 1, 10, 100 and 1000 nM; 37° C. 60 minutes; fluorescence Ex 390, Em 460; read-out: HDAC6 IC50
T1 construct: purchased Calbiochem 382180
T1 sequence (Q9UBN7 1-1215): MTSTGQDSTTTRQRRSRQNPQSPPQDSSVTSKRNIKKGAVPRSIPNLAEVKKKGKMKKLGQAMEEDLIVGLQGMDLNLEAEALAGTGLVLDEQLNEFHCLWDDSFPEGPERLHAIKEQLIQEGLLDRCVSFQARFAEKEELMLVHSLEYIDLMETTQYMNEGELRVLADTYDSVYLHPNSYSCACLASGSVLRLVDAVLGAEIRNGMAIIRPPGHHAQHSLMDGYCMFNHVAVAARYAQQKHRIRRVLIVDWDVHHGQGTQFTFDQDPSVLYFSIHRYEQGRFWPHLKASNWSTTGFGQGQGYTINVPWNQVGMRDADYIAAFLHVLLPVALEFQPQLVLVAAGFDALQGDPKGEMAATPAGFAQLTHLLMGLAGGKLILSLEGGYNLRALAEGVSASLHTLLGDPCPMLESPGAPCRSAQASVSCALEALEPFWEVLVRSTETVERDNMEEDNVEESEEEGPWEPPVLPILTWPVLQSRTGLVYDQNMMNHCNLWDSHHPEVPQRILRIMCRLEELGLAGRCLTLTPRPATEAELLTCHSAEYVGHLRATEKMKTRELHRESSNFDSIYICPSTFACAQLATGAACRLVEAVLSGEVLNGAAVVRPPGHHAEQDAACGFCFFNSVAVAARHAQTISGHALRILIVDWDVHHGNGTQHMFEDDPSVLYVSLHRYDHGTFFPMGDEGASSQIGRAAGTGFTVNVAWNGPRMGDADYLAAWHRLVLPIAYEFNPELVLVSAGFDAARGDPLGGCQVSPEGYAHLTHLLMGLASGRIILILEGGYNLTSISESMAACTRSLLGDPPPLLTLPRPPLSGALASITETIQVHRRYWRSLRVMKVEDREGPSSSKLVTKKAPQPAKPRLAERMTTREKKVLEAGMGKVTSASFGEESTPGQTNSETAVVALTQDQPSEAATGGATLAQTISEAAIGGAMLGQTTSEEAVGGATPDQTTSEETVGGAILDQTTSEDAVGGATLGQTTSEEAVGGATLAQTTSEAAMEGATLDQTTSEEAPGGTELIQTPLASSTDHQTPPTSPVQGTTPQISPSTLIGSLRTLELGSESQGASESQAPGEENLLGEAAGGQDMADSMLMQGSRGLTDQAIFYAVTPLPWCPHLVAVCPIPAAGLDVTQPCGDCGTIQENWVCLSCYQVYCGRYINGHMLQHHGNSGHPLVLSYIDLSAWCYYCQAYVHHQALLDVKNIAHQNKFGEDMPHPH
In short: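 Fluorescence (Ex 390, Em 460) read after a 37° C, 60 min enzyme reaction and a further 30 min developer step at 37° C. Uses recombinant human HDAC6; HDAC1 arm dosed at 100, 1000, 10000 nM.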

HDAC1 = molecular target: T2, HDAC1 (Homo sapiens, UniProt Q13547); assay: HDAC enzyme activity inhibition (in vitro), HDAC1 Fluorimetric Drug Discovery Assay Kit; format: biochemical; conditions: samples at 100, 1000 and 10000 nM; 37° C. 60 minutes; fluorescence Ex 390, Em 460; read-out: HDAC1 IC50
T2 construct: purchased Enzolifesciences BML-AK511
T2 sequence (Q13547 whole entry): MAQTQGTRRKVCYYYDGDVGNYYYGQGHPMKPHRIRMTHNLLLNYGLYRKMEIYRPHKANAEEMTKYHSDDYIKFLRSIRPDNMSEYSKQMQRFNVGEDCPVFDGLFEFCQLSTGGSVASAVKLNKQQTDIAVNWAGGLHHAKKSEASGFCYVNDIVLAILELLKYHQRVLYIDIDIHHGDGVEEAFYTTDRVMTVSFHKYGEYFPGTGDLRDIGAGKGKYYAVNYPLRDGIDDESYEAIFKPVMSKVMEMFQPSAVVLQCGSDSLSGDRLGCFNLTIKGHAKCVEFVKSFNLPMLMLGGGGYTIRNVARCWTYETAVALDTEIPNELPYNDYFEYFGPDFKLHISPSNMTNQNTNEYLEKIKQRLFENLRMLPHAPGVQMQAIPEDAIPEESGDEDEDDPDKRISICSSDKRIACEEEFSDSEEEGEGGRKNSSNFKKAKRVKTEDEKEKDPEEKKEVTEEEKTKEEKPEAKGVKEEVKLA
In short: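 Fluorescence read-out (Ex 390/Em 460) after developer step, 30 min at 37° C, following a 60-min 37° C enzyme reaction. Test concentrations: HDAC1 kit, 100–10000 nM (three levels); recombinant human HDAC6, 0.1–1000 nM (five levels).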

Row | SMILES | IC50 (HDAC6 human recombinant) | IC50 (HDAC1)
1 | CN1CCC(n2c(=O)n(Cc3ccc(-c4nnc(C(F)F)o4)cn3)c3ccc(-c4ccoc4)cc32)CC1 [Compound 137, 1-((5-(5-(difluoromethyl)-1,3,4-oxadiazole-2-yl)pyridine-2-yl)methyl)-5-(furan-3-yl)-3-(1-methylpiperidine-4-yl)-1,3-dihydro-2H-benzo[d]imidazole-2-one] | 19 nM | > 10000 nM
2 | CN1CCC(n2c(=O)n(Cc3ccc(-c4nnc(C(F)F)o4)cn3)c3ccc(-c4ccco4)cc32)CC1 [Compound 138, 1-((5-(5-(difluoromethyl)-1,3,4-oxadiazole-2-yl)pyridine-2-yl)methyl)-5-(furan-2-yl)-3-(1-methylpiperidine-4-yl)-1,3-dihydro-2H-benzo[d]imidazole-2-one] | 19 nM | > 10000 nM
3 | CN1CCC(n2c(=O)n(Cc3ccc(-c4nnc(C(F)F)o4)cc3F)c3ccc(-c4cccnc4)cc32)CC1 [Compound 139, 1-(4-(5-(difluoromethyl)-1,3,4-oxadiazole-2-yl)-2-fluorobenzyl)-3-(1-methylpiperidine-4-yl)-5-(pyridine-3-yl)-1,3-dihydro-2H-benzo[d]imidazole-2-one] | 31 nM | > 10000 nM
4 | CN1CCC(n2c(=O)n(Cc3ccc(-c4nnc(C(F)F)o4)cc3F)c3ccc(-c4ccco4)cc32)CC1 [Compound 140, 1-(4-(5-(difluoromethyl)-1,3,4-oxadiazole-2-yl)-2-fluorobenzyl)-5-(furan-2-yl)-3-(1-methylpiperidine-4-yl)-1,3-dihydro-2H-benzo[d]imidazole-2-one] | 54 nM | > 10000 nM
5 | Cn1c(=O)n(Cc2ccc(-c3nnc(C(F)F)o3)cn2)c2cc(F)ccc21 [Compound 142, 3-((5-(5-(difluoromethyl)-1,3,4-oxadiazole-2-yl)pyridine-2-yl)methyl)-5-fluoro-1-methy 1-1,3-dihydro-2H-benzo[d]imidazole-2-one] | 18 nM | > 10000 nM
6 | Cn1c(=O)n(Cc2ccc(-c3nnc(C(F)F)o3)cc2F)c2cc(F)ccc21 [Compound 143, 3-(4-(5-(difluoromethyl)-1,3,4-oxadiazole-2-yl)-2-fluorobenzyl)-5-fluoro-1-methyl-1,3-dihydro-2H-benzo[d]imidazole-2-one] | 71 nM | > 10000 nM
7 | Cn1c(=O)n(Cc2ccc(-c3nnc(C(F)F)o3)cc2)c2cc(F)ccc21 [Compound 144, 3-(4-(5-(difluoromethyl)-1,3,4-oxadiazole-2-yl)benzyl)-5-fluoro-1-methyl-1,3-dihydro-2H-benzo[d]imidazole-2-one] | 77 nM | > 10000 nM
8 | Cc1ccc(-c2ccc3c(c2)n(Cc2ccc(-c4nnc(C(F)F)o4)cn2)c(=O)n3C2CCN(C)CC2)o1 [Compound 146, 3-((5-(5-(difluoromethyl)-1,3,4-oxadiazole-2-yl)pyridine-2-yl)methyl)-5-(5-methylfuran-2-yl)-1-(1-methylpiperidine-4-yl)-1,3-dihydro-2H-benzo[d]imidazole-2-one] | 130 nM | > 10000 nM
9 | Cn1c(=O)n(Cc2ccc(-c3nnc(C(F)F)o3)cn2)c2cc(F)c(Br)cc21 [Compound 147, 5-bromo-1-((5-(5-(difluoromethyl)-1,3,4-oxadiazole-2-yl)pyridine-2-yl)methyl)-6-fluoro-3-methyl-1,3-dihydro-2H-benzo[d]imidazole-2-one] | 15 nM | > 10000 nM
10 | Cn1c(=O)n(Cc2ccc(-c3nnc(C(F)F)o3)cc2F)c2cc(F)c(Br)cc21 [Compound 148, 5-bromo-1-(4-(5-(difluoromethyl)-1,3,4-oxadiazole-2-yl)-2-fluorobenzyl)-6-fluoro-3-methyl-1,3-dihydro-2H-benzo[d]imidazole-2-one] | 61 nM | > 10000 nM

Next, values leading:

Row | IC50 (HDAC6 human recombinant) | IC50 (HDAC1) | SMILES
11 | 12 nM | > 10000 nM | CN1CCC(n2c(=O)n(Cc3ccc(-c4nnc(C(F)F)o4)cn3)c3cc(Br)ccc32)CC1 [Compound 141, 5-bromo-3-((5-(5-(difluoromethyl)-1,3,4-oxadiazole-2-yl)pyridine-2-yl)methyl)-1-(1-methylpiperidine-4-yl)-1,3-dihydro-2H-benzo[d]imidazole-2-one]
12 | 315 nM | > 10000 nM | CN1CCC(n2c(=O)n(Cc3ccc(-c4nnc(C(F)F)o4)cn3)c3cc(-c4cccnc4)ccc32)CC1 [Compound 145, 3-((5-(5-(difluoromethyl)-1,3,4-oxadiazole-2-yl)pyridine-2-yl)methyl)-1-(1-methylpiperidine-4-yl)-5-(pyridine-3-yl)-1,3-dihydro-2H-benzo[d]imidazole-2-one]
13 | 40 nM | > 10000 nM | CN1CCC(n2c(=O)n(Cc3ccc(-c4nnc(C(F)F)o4)cn3)c3cc(F)c(Br)cc32)CC1 [Compound 149, 5-bromo-1-((5-(5-(difluoromethyl)-1,3,4-oxadiazole-2-yl)pyridine-2-yl)methyl)-6-fluoro-3-(1-methylpiperidine-4-yl)-1,3-dihydro-2H-benzo[d]imidazole-2-one]
14 | 43 nM | > 10000 nM | CN1CCC(n2c(=O)n(Cc3ccc(-c4nnc(C(F)F)o4)cn3)c3cc(F)c(-c4ccoc4)cc32)CC1 [Compound 150, 1-((5-(5-(difluoromethyl)-1,3,4-oxadiazole-2-yl)pyridine-2-yl)methyl)-6-fluoro-5-(furan-3-yl)-3-(1-methylpiperidine-4-yl)-1,3-dihydro-2H-benzo[d]imidazole-2-one]
15 | 55 nM | > 10000 nM | CN1CCC(n2c(=O)n(Cc3ccc(-c4nnc(C(F)F)o4)cn3)c3cc(F)c(-c4ccco4)cc32)CC1 [Compound 151, 1-((5-(5-(difluoromethyl)-1,3,4-oxadiazole-2-yl)pyridine-2-yl)methyl)-6-fluoro-5-(furan-2-yl)-3-(1-methylpiperidine-4-yl)-1,3-dihydro-2H-benzo[d]imidazole-2-one]
16 | 34 nM | > 10000 nM | CN1CCC(n2c(=O)n(Cc3ccc(-c4nnc(C(F)F)o4)cn3)c3cc(F)c(-c4ccccc4F)cc32)CC1 [Compound 152, 1-((5-(5-(difluoromethyl)-1,3,4-oxadiazole-2-yl)pyridine-2-yl)methyl)-6-fluoro-5-(2-fluorophenyl)-3-(1-methylpiperidine-4-yl)-1,3-dihydro-2H-benzo[d]imidazole-2-one]
17 | 16 nM | > 10000 nM | CN1CCC(n2c(=O)n(Cc3ccc(-c4nnc(C(F)F)o4)cn3)c3cc(F)c(-c4ccncc4)cc32)CC1 [Compound 153, 1-((5-(5-(difluoromethyl)-1,3,4-oxadiazole-2-yl)pyridine-2-yl)methyl)-6-fluoro-3-(1-methylpiperidine-4-yl)-5-(pyridine-4-yl)-1,3-dihydro-2H-benzo[d]imidazole-2-one]
18 | 42 nM | > 10000 nM | CN1CCC(n2c(=O)n(Cc3ccc(-c4nnc(C(F)F)o4)cn3)c3cc(F)c(-c4cccc(F)c4)cc32)CC1 [Compound 154, 1-((5-(5-(difluoromethyl)-1,3,4-oxadiazole-2-yl)pyridine-2-yl)methyl)-6-fluoro-5-(3-fluorophenyl)-3-(1-methylpiperidine-4-yl)-1,3-dihydro-2H-benzo[d]imidazole-2-one]
19 | 20 nM | > 10000 nM | CN1CCC(n2c(=O)n(Cc3ccc(-c4nnc(C(F)F)o4)cn3)c3cc(F)c(-c4cccnc4)cc32)CC1 [Compound 155, 1-((5-(5-(difluoromethyl)-1,3,4-oxadiazole-2-yl)pyridine-2-yl)methyl)-6-fluoro-3-(1-methylpiperidine-4-yl)-5-(pyridine-3-yl)-1,3-dihydro-2H-benzo[d]imidazole-2-one]
